Each structure is given as a SMILES string.

This is an account of results in US20250136576A1, “Heterocyclic Compounds and Uses Thereof” (ACEA Therapeutics, Inc., priority 2021, published 2025).

The experiment concerns KM12-luc cells. Put plainly: Cell proliferation and growth inhibition assay (CCK-8) in KM12-luc. Format: cell-based. The note with it: KM12-Luc, 72 h, KM12-luc cells, treated with test compounds for 72 hrs, CCK-8 viability; read-out: NTRK IC50 in KM12-luc. In short, it runs like this: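 Cells were grown at 37 °C, 5% CO2 with 10% FBS: MV-4-11 in IMDM, H1975 in RPMI 1640, KM12-luc in DMEM. Viability was read by CCK-8 (1-4 hrs reagent incubation, absorbance at OD450). IC50 came from a non-linear sigmoidal dose-response fit.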

On to `COc1cnc(Nc2ccc(N(C)CCN(C)C)c(NC(C)=O)c2)nc1-c1cn(C)c2ccccc12` [Compound 274, N-(2-((2-(dimethylamino)ethyl)(methyl)amino)-5-(5-methoxy-4-(1-methyl-1H-indol-3-yl)pyrimidin-2-ylamino)phenyl)acetamide], for which the IC50 amounted to 128 nM.
The result for `CNc1cc(Nc2ncc(OC)c(-c3cn(C)c4ccccc34)n2)ccc1N(C)CCN(C)C` [Compound 275, N^1-(2-(dimethylamino)ethyl)-N^4-(5-methoxy-4-(1-methyl-1H-indol-3-yl)pyrimidin-2-yl)-N^1,N^2-dimethylbenzene-1,2,4-triamine] reads 600 nM; that for `COc1cnc(Nc2ccc(N(C)CCN(C)C)c(NCC(F)(F)F)c2)nc1-c1cn(C)c2ccccc12` [Compound 276, N^1-(2-(dimethylamino)ethyl)-N^4-(5-methoxy-4-(1-methyl-1H-indol-3-yl)pyrimidin-2-yl)-N^1-methyl-N^2-(2,2,2-trifluoroethyl)benzene-1,2,4-triamine], 679 nM.
For `COc1cnc(Nc2ccc(N(C)CCN(C)C)c(NC(C)=O)c2)nc1-c1cn(C)c2cccc(F)c12` [Compound 277, N-(2-((2-(dimethylamino)ethyl)(methyl)amino)-5-((4-(4-fluoro-1-methyl-1H-indol-3-yl)-5-methoxypyrimidin-2-yl)amino)phenyl)acetamide], the IC50 was 368 nM.
The result for `COc1cnc(Nc2ccc(N(CCN(C)C)C(C)=O)c(NC(C)=O)c2)nc1-c1c[nH]c2c(F)cccc12` [Compound 278, N-(2-acetamido-4-((4-(7-fluoro-1H-indol-3-yl)-5-methoxypyrimidin-2-yl)amino)phenyl)-N-(2-(dimethylamino)ethyl)acetamide] reads 17.1 nM; that for `COc1cnc(Nc2ccc(OCCN(C)C)c(NC(C)=O)c2)nc1-c1c[nH]c2c(F)cccc12` [Compound 279, N-(2-(2-(dimethylamino)ethoxy)-5-((4-(7-fluoro-1H-indol-3-yl)-5-methoxypyrimidin-2-yl)amino)phenyl)acetamide], 52.6 nM; that for `COc1cnc(Nc2ccc(OCCN(C)C)c(N)c2)nc1-c1cn(C)c2c(F)cccc12` [Compound 283, 4-(2-(dimethylamino)ethoxy)-N^1-(4-(7-fluoro-1-methyl-1H-indol-3-yl)-5-methoxypyrimidin-2-yl)benzene-1,3-diamine], 86.4 nM.
As for `COc1cnc(Nc2ccc(OCCN(C)C)c(NC(C)=O)c2)nc1-c1cn(C)c2c(C)cccc12` [Compound 285, N-(5-((4-(1,7-dimethyl-1H-indol-3-yl)-5-methoxypyrimidin-2-yl)amino)-2-(2-(dimethylamino)ethoxy)phenyl)acetamide], the IC50 is 99.6 nM.
The result for `COc1cnc(Nc2ccc(N(CCN(C)C)C(C)=O)c(NC(C)=O)c2)nc1-c1c[nH]c2c(OC)cccc12` [Compound 286, N-(2-acetamido-4-((5-methoxy-4-(7-methoxy-1H-indol-3-yl)pyrimidin-2-yl)amino)phenyl)-N-(2-(dimethylamino)ethyl)acetamide] reads 14.6 nM.
Take `COc1cnc(Nc2ccc(OCCN(C)C)c(NC(C)=O)c2)nc1-c1c[nH]c2c(OC)cccc12` [Compound 287, N-(2-(2-(dimethylamino)ethoxy)-5-((5-methoxy-4-(7-methoxy-1H-indol-3-yl)pyrimidin-2-yl)amino)phenyl)acetamide]: the half-inhibitory concentration (IC50) turned out to be 21.9 nM.
For the compound `COc1cnc(Nc2ccc(N(C)CCN(C)C)c(NC(C)=O)c2)nc1-c1cn(C)nc1C` [Compound 289, N-(5-((4-(1,3-dimethyl-1H-pyrazol-4-yl)-5-methoxypyrimidin-2-yl)amino)-2-((2-(dimethylamino)ethyl)(methyl)amino)phenyl)acetamide], the IC50 is greater than 10000 nM.
Consider `CNc1cc(Nc2ncc(OC)c(-c3cn(C)nc3C)n2)ccc1N(C)CCN(C)C` [Compound 290, N^4-(4-(1,3-dimethyl-1H-pyrazol-4-yl)-5-methoxypyrimidin-2-yl)-N1-(2-(dimethylamino)ethyl)-N^1,N^2-dimethylbenzene-1,2,4-triamine], for which the IC50 is greater than 10000 nM.
As for `COc1nc(Nc2ccc(N(C)CCN(C)C)c(NC(C)=O)c2)nc(-c2cn(C)c3ccccc23)c1OC` [Compound 291a, N-(5-((4,5-dimethoxy-6-(1-methyl-1H-indol-3-yl)pyrimidin-2-yl)amino)-2-((2-(dimethylamino)ethyl) (methyl)amino)phenyl)acetamide], the IC50 was 8660 nM.
The result for `COc1nc(Nc2cc(F)c(N(C)CCN(C)C)c(NC(C)=O)c2)nc(-c2cn(C)c3ccccc23)c1OC` [Compound 291b, N-(5-((4,5-dimethoxy-6-(1-methyl-1H-indol-3-yl)pyrimidin-2-yl)amino)-2-((2-(dimethylamino)ethyl)(methyl)amino)-3-fluorophenyl)acetamide] reads 1400 nM; that for `CCN(CCN(C)C)c1ccc(Nc2nc(OC)c(OC)c(-c3cn(C)c4ccccc34)n2)cc1NC(C)=O` [Compound 291c, N-(5-((4,5-dimethoxy-6-(1-methyl-1H-indol-3-yl)pyrimidin-2-yl)amino)-2-((2-(dimethylamino)ethyl) (ethyl)amino)phenyl) acetamide], 2050 nM.
Consider `CCN(CCN(C)C)c1c(F)cc(Nc2nc(OC)c(OC)c(-c3cn(C)c4ccccc34)n2)cc1NC(C)=O` [Compound 291d, N-(5-((4,5-dimethoxy-6-(1-methyl-1H-indol-3-yl)pyrimidin-2-yl)amino)-2-((2-(dimethylamino)ethyl) (ethyl)amino)-3-fluorophenyl)acetamide], for which the IC50 was 3270 nM.
The result for `COc1c(N)nc(Nc2ccc(N(C)CCN(C)C)c(N)c2)nc1-c1cn(C)c2ccccc12` [Compound 294, N^4-(4-amino-5-methoxy-6-(1-methyl-1H-indol-3-yl)pyrimidin-2-yl)-N^1-(2-(dimethylamino)ethyl)-N^1-methylbenzene-1,2,4-triamine] reads 167 nM; that for `COc1c(N)nc(Nc2ccc(N(C)CCN(C)C)c(NC(C)=O)c2)nc1-c1cn(C)c2ccccc12` [Compound 295, N-(5-((4-amino-5-methoxy-6-(1-methyl-1H-indol-3-yl)pyrimidin-2-yl)amino)-2-((2-(dimethylamino)ethyl) (methyl)amino)phenyl) acetamide], 159 nM; that for `CN(C)CCN(C)c1ccc(Nc2ncc(C(F)(F)F)c(-c3c[nH]c4ccccc34)n2)cc1N` [Compound 297, N^4-(4-(1H-indol-3-yl)-5-(trifluoromethyl)pyrimidin-2-yl)-N^1-(2-(dimethylamino)ethyl)-N^1-methylbenzene-1,2,4-triamine], 37.7 nM.
The result for `CC(=O)Nc1cc(Nc2ncc(C(F)(F)F)c(-c3c[nH]c4ccccc34)n2)cc(F)c1N(C)CCN(C)C` [Compound 299a, N-(5-((4-(1H-indol-3-yl)-5-(trifluoromethyl)pyrimidin-2-yl)amino)-2-((2-(dimethylamino)ethyl)(methyl)amino)-3-fluorophenyl)acetamide] reads 48.1 nM.
The result for `CC(=O)Nc1cc(Nc2nc(-c3c[nH]c4ccccc34)ncc2C(F)(F)F)cc(F)c1N(C)CCN(C)C` [Compound 299b, N-(5-((2-(1H-indol-3-yl)-5-(trifluoromethyl)pyrimidin-4-yl)amino)-2-((2-(dimethylamino)ethyl)(methyl)amino)-3-fluorophenyl)acetamide] reads 3380 nM.
For `CCN(CCN(C)C)c1ccc(Nc2ncc(C(F)(F)F)c(-c3c[nH]c4ccccc34)n2)cc1NC(C)=O` [Compound 300a, N-(5-((4-(1H-indol-3-yl)-5-(trifluoromethyl)pyrimidin-2-yl)amino)-2-((2-(dimethylamino)ethyl)(ethyl)amino)phenyl)acetamide], the IC50 worked out at 27.9 nM.
Under `CCN(CCN(C)C)c1ccc(Nc2nc(-c3c[nH]c4ccccc34)ncc2C(F)(F)F)cc1NC(C)=O` [Compound 300b, N-(5-((2-(1H-indol-3-yl)-5-(trifluoromethyl)pyrimidin-4-yl)amino)-2-((2-(dimethylamino)ethyl)(ethyl)amino)phenyl)acetamide] stands 3680 nM; under `CCN(CCN(C)C)c1ccc(Nc2ncc(C(F)(F)F)c(-c3c[nH]c4ccccc34)n2)cc1N` [Compound 301, N^4-(4-(1H-indol-3-yl)-5-(trifluoromethyl)pyrimidin-2-yl)-N^1-(2-(dimethylamino)ethyl)-N-ethylbenzene-1,2,4-triamine], 75.4 nM; under `CCC(=O)Nc1cc(Nc2ncc(C(F)(F)F)c(-c3c[nH]c4ccccc34)n2)ccc1N(CC)CCN(C)C` [Compound 302, N-(5-((4-(1H-indol-3-yl)-5-(trifluoromethyl)pyrimidin-2-yl)amino)-2-((2-(dimethylamino)ethyl)(ethyl)amino)phenyl)propionamide], 96.8 nM.
Under `Cc1nc2cc(Nc3ncc(C(F)(F)F)c(-c4c[nH]c5ccccc45)n3)ccc2n1CCN(C)C` [Compound 303b, N^1—N-(4-(1H-indol-3-yl)-5-(trifluoromethyl)pyrimidin-2-yl)-1-(2-(dimethylamino)ethyl)-2-methyl-1H-benzo[d]imidazol-5-amine] stands 64.3 nM; under `CC(=O)Nc1cc(Nc2ncc(C(F)(F)F)c(-c3c[nH]c4ccccc34)n2)ccc1OCCN(C)C` [Compound 304, N-(5-((4-(1H-indol-3-yl)-5-(trifluoromethyl)pyrimidin-2-yl)amino)-2-(2-(dimethylamino)ethoxy)phenyl)acetamide], 75.1 nM; under `CN(C)CCN(C)c1ccc(Nc2ncc(C(F)(F)F)c(-c3cn(C)c4ccccc34)n2)cc1N` [Compound 306, N^1-(2-(dimethylamino)ethyl)-N^1-methyl-N^4-(4-(1-methyl-1H-indol-3-yl)-5-(trifluoromethyl)pyrimidin-2-yl)benzene-1,2,4-triamine], 56.1 nM.
With `CC(=O)Nc1cc(Nc2ncc(C(F)(F)F)c(-c3cn(C)c4ccccc34)n2)cc(F)c1N(C)CCN(C)C` [Compound 308, N-(2-((2-(dimethylamino)ethyl)(methyl)amino)-3-fluoro-5-((4-(1-methyl-1H-indol-3-yl)-5-(trifluoromethyl)pyrimidin-2-yl)amino)phenyl)acetamide], the IC50 turned out to be 139 nM.
